Paper PMC11582101, “Unlocking the potential: unveiling tyrphostins with Michael-reactive cyanoacrylate motif as promising inhibitors of human 5-lipoxygenase” (Pflugers Archiv, 2024)
“And” between values parts separate entries of the source, which are not always exact repeats. Identical values can stand only once. “Also recorded” adds a separate entry of the source.

Key:
r5-LO_4C = target: T1, r5-LO_4C (Homo sapiens, UniProt P09917, C160S/C301S/C417S/C419S); experiment: Covalent inhibitor binding by mass spectrometry, r5-LO_4C; details: 20 µM protein, 100 µM compound, at least 1 h RT
T1 construct: made in house; host or cells: E. coli BL21 (DE3)
T1 sequence (P09917 2-674 C160S/C301S/C417S/C419S limits assumed): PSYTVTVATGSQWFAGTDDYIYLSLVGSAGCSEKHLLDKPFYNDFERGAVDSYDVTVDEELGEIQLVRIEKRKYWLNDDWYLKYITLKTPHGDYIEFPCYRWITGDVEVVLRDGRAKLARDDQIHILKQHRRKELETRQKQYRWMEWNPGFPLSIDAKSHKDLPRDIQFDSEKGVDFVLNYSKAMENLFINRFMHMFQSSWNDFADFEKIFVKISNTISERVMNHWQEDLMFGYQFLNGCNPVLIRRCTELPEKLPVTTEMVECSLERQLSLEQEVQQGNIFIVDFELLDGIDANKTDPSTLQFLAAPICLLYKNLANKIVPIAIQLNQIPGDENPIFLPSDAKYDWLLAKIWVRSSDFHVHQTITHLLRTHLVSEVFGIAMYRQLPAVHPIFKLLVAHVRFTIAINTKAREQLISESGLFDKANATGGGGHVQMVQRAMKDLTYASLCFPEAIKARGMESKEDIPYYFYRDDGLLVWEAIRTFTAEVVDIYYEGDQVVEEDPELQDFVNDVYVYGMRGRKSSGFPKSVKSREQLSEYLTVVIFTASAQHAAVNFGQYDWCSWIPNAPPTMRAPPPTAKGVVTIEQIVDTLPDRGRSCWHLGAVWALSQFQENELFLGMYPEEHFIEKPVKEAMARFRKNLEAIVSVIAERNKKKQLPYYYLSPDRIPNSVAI
Protocol: r5-LO_WT or r5-LO_4C protein was diluted to 20 µM in gel filtration buffer; 100 µM of compound was added and incubated for a minimum time of 1 h at RT before 10 µL was injected onto a 1260 Infinity HPLC (Agilent, Santa Clara, USA) using a C3 column with a flow rate of 0.4 mL/min as published before. The HPLC was coupled with a 6230 electrospray ionization TOF LC/MS detector (Agilent, Santa Clara, CA, USA). Data were acquired using the Agilent MassHunter Acquisition software and processed with the Agilent Mass Hunter BioConfirm software (B.08.00). Peak intensities were calculated and normalized to the highest count of each data set with GraphPad Prism version 7.05 (GraphPad Software, Boston, MA, USA).
Fig. 3 Mass spectra of r5-LO_WT or r5-LO_4C incubated with inhibitors (blue or red line). 20 µM r5-LO_WT (left) or r5-LO_4C (right) was incubated with 100 µM degrasyn (A), AG556 (B), tyrphostin A9 (C), AG879 (D), or CAPE (E) at RT for at least 1 h before analysis. Measurement was performed using an Agilent 1260 Infinity HPLC with an Agilent 6230 TOF LC/MS detector. Obtained data were processed using Mass Hunter BioConfirm (B.08.00), and resulted counts were normalized to the highest peak of the spectrum

U2OS cells [1] = experiment: Multiplex live-cell high-content assay; details: 10 µM, 48 h
U2OS cells [2] = details: human, 10 µM
r5-LO_WT = target: T2, r5-LO_WT (Homo sapiens, UniProt P09917); experiment: Covalent inhibitor binding by mass spectrometry, r5-LO_WT; details: 100 µM compound; for inhibitor adducts to r5-LO_WT detected by mass spectrometry: 20 µM protein, at least 1 h RT; for mass shift of inhibitor adduct: 20 µM r5-LO_WT
T2 construct: made in house; host or cells: E. coli BL21 (DE3)
T2 sequence (P09917 1-674): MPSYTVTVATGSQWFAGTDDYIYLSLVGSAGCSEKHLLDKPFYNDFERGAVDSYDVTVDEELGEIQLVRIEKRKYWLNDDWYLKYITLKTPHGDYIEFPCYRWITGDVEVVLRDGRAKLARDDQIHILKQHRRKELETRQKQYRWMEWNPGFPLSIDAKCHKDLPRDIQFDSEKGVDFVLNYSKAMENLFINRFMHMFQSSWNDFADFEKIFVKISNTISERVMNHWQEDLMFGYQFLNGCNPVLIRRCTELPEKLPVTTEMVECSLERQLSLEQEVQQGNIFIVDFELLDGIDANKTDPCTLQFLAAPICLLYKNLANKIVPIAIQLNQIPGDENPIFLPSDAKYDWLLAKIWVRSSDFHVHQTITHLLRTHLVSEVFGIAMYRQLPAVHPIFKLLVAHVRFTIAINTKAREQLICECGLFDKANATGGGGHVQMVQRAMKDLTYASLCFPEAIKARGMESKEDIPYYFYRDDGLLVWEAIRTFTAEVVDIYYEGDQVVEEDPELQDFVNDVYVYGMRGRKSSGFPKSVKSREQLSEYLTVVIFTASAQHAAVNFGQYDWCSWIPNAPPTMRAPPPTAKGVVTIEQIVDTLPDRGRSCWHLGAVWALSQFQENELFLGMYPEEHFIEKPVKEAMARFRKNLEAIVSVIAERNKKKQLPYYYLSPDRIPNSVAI

15-LO = experiment: 15-HETE formation in intact PMNL; details: intact PMNL, 20 µM AA, 2.5 µM A23187, (95% CI), n = 3–6; for IC50: read-out: IC50 for inhibition of 15-HETE formation, PMNL
5-LO [3] = target: T3, 5-LO (Homo sapiens, UniProt P09917); experiment: 5-LO product formation in intact PMNL
T3 sequence (P09917 1-674): T2 sequence (P09917 1-674)

12-LO = target: T4, 12-LO (Homo sapiens, UniProt P18054); experiment: 12-HETE formation in platelets; details: 20 µM AA, 2.5 µM A23187, n = 3–6
T4 sequence (P18054 1-663): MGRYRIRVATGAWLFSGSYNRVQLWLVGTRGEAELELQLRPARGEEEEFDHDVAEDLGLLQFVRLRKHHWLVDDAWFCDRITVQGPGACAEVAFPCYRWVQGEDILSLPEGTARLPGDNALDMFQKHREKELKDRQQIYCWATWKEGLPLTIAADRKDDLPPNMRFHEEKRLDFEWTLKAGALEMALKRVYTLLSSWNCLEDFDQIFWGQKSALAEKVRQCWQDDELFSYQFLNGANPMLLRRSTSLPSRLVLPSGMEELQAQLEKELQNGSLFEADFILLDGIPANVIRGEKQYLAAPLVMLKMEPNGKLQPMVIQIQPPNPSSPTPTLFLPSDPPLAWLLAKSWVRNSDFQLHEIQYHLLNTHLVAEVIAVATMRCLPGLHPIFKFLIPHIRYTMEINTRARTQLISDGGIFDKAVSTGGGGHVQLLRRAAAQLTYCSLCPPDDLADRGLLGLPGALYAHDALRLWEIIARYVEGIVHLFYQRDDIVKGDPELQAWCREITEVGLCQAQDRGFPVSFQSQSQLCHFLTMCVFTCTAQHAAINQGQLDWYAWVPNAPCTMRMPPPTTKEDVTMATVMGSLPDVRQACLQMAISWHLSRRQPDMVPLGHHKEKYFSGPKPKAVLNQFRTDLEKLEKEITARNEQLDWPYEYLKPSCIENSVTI

5-LO [4] = target: T3, 5-LO; experiment: 5-LO activity in PMNL homogenates; assay type: biochemical; design: endogenous in cells; host or cells: human PMNL (polymorphonuclear leukocytes); details: sonicated PMNL, 20 µM AA
Protocol: Samples were kept on ice, and 1 mM ATP or 1 mM ATP/1 mM GSH was added. The inhibitors were preincubated with the cell homogenate on ice for 15 min before heating the samples at 37 °C for 30 s. […] Solid phase extraction and UPLC analysis were performed as described above.

Her2/ErbB2 = system: Her2/ErbB2; design: method as in PMID 7892601; details: original target of AG879; cited from earlier work

SMILES	inhibitor adducts to r5-LO_4C detected by mass spectrometry (r5-LO_4C)	phenotypic properties (tubulin, mitochondrial mass, membrane permeability, cell morphology) (U2OS cells [1])	normalized healthy cell count (U2OS cells [2])	increase of mitochondrial mass (U2OS cells [2]; 48 h)	inhibitor adducts to r5-LO_WT detected by mass spectrometry (r5-LO_WT)	mass shift of inhibitor adduct (r5-LO_WT) [Da]	IC50 for inhibition of 15-HETE formation, PMNL (15-LO)	IC50 (15-LO) [nM]	IC50 (5-LO [3]) [nM]	IC50 for inhibition of 12-HETE formation, platelets (12-LO)	IC50 (5-LO [4]; with 1 mM GSH, read-out: IC50 5-LO, PMNL homogenates + GSH) [nM]	IC50 (5-LO [4]; without GSH, read-out: IC50 5-LO, PMNL homogenates) [nM]	IC50 (Her2/ErbB2) [nM]	IC50 (5-LO [3]; IC50 for inhibition of 5-LO product formation, PMNL, intact PMNL, 20 µM AA, 2.5 µM A23187, (95% CI), n = 3–6)
CCC[C@H](NC(=O)/C(C#N)=C/c1cccc(Br)n1)c1ccccc1 [Degrasyn]	only one adduct	additional effects on microtubules and on membrane integrity	below 50%	more than 50%	covalently bound to up to four cysteines; also recorded: four peaks	384	moderate inhibition	7900	620	no inhibition	4200	890		
N#C/C(=C\c1ccc(O)c(O)c1)C(=O)NCCCCc1ccccc1 [AG556]	only one adduct		around 75%		covalently bound to up to four cysteines; also recorded: four peaks	336		5100	340	no inhibition				
CC(C)(C)c1cc(/C=C(\C#N)C(N)=S)cc(C(C)(C)C)c1O [AG879]			around 75%		did not detect mass shifts			> 25000		no inhibition			1000	400 nM and 420 nM
